# Tests used:
# Experiment in all cases: Spore germination test
# Type in all cases: cell-based
# Alternaria solani = settings: AS, 48 hours
# Summary of the method: (§1)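 Compound was delivered in acetone into water agar at final 40, 10, 2.5 and 1 ppm. Alternaria solani and Botrytis cinerea spores were applied as sterile-water suspensions, while Erysiphe polygoni and Uromyces phaseoli spores were brushed on from infected leaves. After 48 h at 24° C., percentage germination was converted to a rating.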
# Botrytis cinerea = settings: BC, 48 hours
# Summary of the method: as §1
# Uromyces phaseoli = settings: UP, 48 hours
# Summary of the method: as §1
Compound,Spore Germination Rating (Alternaria solani; 1.0 ppm),Spore Germination Rating (Alternaria solani; 2.5 ppm),Spore Germination Rating (Alternaria solani; 10 ppm),Spore Germination Rating (Alternaria solani; 40 ppm),Spore Germination Rating (Botrytis cinerea; 1.0 ppm),Spore Germination Rating (Botrytis cinerea; 2.5 ppm),Spore Germination Rating (Botrytis cinerea; 10 ppm),Spore Germination Rating (Botrytis cinerea; 40 ppm),Spore Germination Rating (Uromyces phaseoli; 1.0 ppm),Spore Germination Rating (Uromyces phaseoli; 2.5 ppm),Spore Germination Rating (Uromyces phaseoli; 10 ppm),Spore Germination Rating (Uromyces phaseoli; 40 ppm)
"CC(=O)c1cccc(Oc2nsnc(Cl)c2=O)c1 [Compound 48, 3-(3-acetylphenoxy)-5-chloro-4H--1,2,6-thiadiazin-4-one]",4 (80-100),3 (60-80),0 (0-10),0 (0-10),4 (80-100),4 (80-100),0 (0-10),0 (0-10),0 (0-10),0 (0-10),0 (0-10),0 (0-10)
"O=c1c(Cl)nsnc1Oc1ccccc1 [Compound 2, 3-chloro-5-phenoxy-4H--1,2,6-thiadiazin-4-one]",4 (80-100),0 (0-10),0 (0-10),0 (0-10),4 (80-100),4 (80-100),0 (0-10),0 (0-10),2 (40-60),2 (40-60),0 (0-10),0 (0-10)
"Cc1ccccc1Oc1nsnc(Cl)c1=O [Compound 22, 3-chloro-5-(2-methylphenoxy)-4H--1,2,6-thiadiazin-4-one]",3 (60-80),0 (0-10),0 (0-10),0 (0-10),2 (40-60),0 (0-10),0 (0-10),0 (0-10),4 (80-100),2 (40-60),1 (10-40),0 (0-10)
"CS(=O)(=O)c1ccc(Oc2nsnc(Cl)c2=O)cc1 [Compound 41, 3-chloro-5-[(4-methylsulfonyl)phenoxy]-4H--1,2,6-thiadiazin-4-one]",4 (80-100),2 (40-60),0 (0-10),0 (0-10),0 (0-10),0 (0-10),4 (80-100),3 (60-80),4 (80-100),1 (10-40),0 (0-10),0 (0-10)
"CCOC(=O)c1ccc(Oc2nsnc(Cl)c2=O)cc1 [Compound 7, 3-chloro-5-(4-ethoxycarbonylphenoxy)-4H--1,2,6-thiadiazin-4-one]",4 (80-100),4 (80-100),4 (80-100),4 (80-100),4 (80-100),3 (60-80),2 (40-60),3 (60-80),0 (0-10),0 (0-10),0 (0-10),0 (0-10)
"O=C(Nc1ccccc1)Nc1ccc(Oc2nsnc(Cl)c2=O)cc1 [Compound 29, 3-chloro-5-[4-(3-phenylureido)-phenoxy]-4H--1,2,6-thiadiazin-4-one]",4 (80-100),4 (80-100),4 (80-100),4 (80-100),3 (60-80),3 (60-80),2 (40-60),2 (40-60),4 (80-100),2 (40-60),2 (40-60),0 (0-10)
"O=c1c(Cl)nsnc1Oc1ccc(F)cc1 [Compound 11, 3-chloro-5-(4-fluorophenoxy)-4H--1,2,6-thiadiazin-4-one]",4 (80-100),0 (0-10),0 (0-10),0 (0-10),4 (80-100),1 (10-40),0 (0-10),0 (0-10),4 (80-100),0 (0-10),0 (0-10),0 (0-10)
"CCCCOc1ccc(Oc2nsnc(Cl)c2=O)cc1 [Compound 6, 3-chloro-5-(4-n-butoxyphenoxy)-4H--1,2,6-thiadiazin-4-one]",4 (80-100),4 (80-100),4 (80-100),4 (80-100),4 (80-100),4 (80-100),4 (80-100),4 (80-100),1 (10-40),0 (0-10),0 (0-10),0 (0-10)
"Cc1ccc(Oc2nsnc(Cl)c2=O)c(Br)c1 [Compound 57, 3-[(2-bromo-4-methyl)-phenoxy]-5-chloro-4H--1,2,6-thiadiazin-4-one]",4 (80-100),2 (40-60),0 (0-10),0 (0-10),3 (60-80),1 (10-40),0 (0-10),0 (0-10),0 (0-10),0 (0-10),0 (0-10),0 (0-10)
"Cc1cc(Cl)ccc1Oc1nsnc(Cl)c1=O [Compound 55, 3-chloro-5-(4-chloro-2-methylphenoxy)-4H--1,2,6-thiadiazin-4-one]",4 (80-100),2 (40-60),1 (10-40),0 (0-10),4 (80-100),3 (60-80),1 (10-40),1 (10-40),0 (0-10),0 (0-10),0 (0-10),0 (0-10)
"CC(=O)c1ccc(Oc2nsnc(Cl)c2=O)cc1 [Compound 47, 3-(4-acetylphenoxy)-5-chloro-4H--1,2,6-thiadiazin-4-one]",2 (40-60),0 (0-10),0 (0-10),0 (0-10),4 (80-100),1 (10-40),0 (0-10),0 (0-10),0 (0-10),0 (0-10),0 (0-10),0 (0-10)
"Cc1cccc(Oc2nsnc(Cl)c2=O)c1 [Compound 21, 3-chloro-5-(3-methylphenoxy)-4H--1,2,6-thiadiazin-4-one]",3 (60-80),1 (10-40),0 (0-10),0 (0-10),4 (80-100),3 (60-80),0 (0-10),0 (0-10),4 (80-100),2 (40-60),0 (0-10),0 (0-10)
"O=C(Nc1ccccc1)Oc1ccc(Oc2nsnc(Cl)c2=O)cc1 [Compound 37, 3-chloro-5-[4-(phenylaminocarbonyloxy)phenoxy]-4H-1,2,6,-thiadiazin-4-one]",4 (80-100),4 (80-100),4 (80-100),3 (60-80),4 (80-100),4 (80-100),4 (80-100),4 (80-100),4 (80-100),2 (40-60),1 (10-40),1 (10-40)
"3-chloro-5-(bromophenoxy)-4H-1,2,6-thiadiazin-4-one [Compound 33]",1 (10-40),0 (0-10),0 (0-10),0 (0-10),4 (80-100),3 (60-80),0 (0-10),0 (0-10),0 (0-10),0 (0-10),0 (0-10),0 (0-10)
"Cc1cc(Oc2nsnc(Cl)c2=O)ccc1Cl [Compound 54, 3-chloro-5-(4-chloro-3-methylphenoxy)-4H--1,2,6-thiadiazin-4-one]",4 (80-100),4 (80-100),4 (80-100),4 (80-100),4 (80-100),4 (80-100),2 (40-60),1 (10-40),0 (0-10),0 (0-10),0 (0-10),0 (0-10)
"Cc1cccc(C)c1Oc1nsnc(Cl)c1=O [Compound 24, 3-chloro-5-(2,6-dimethylphenoxy)-4H--1,2,6-thiadiazin-4-one]",1 (10-40),1 (10-40),0 (0-10),0 (0-10),3 (60-80),1 (10-40),0 (0-10),0 (0-10),1 (10-40),0 (0-10),0 (0-10),0 (0-10)
"CC(=O)c1ccccc1Oc1nsnc(Cl)c1=O [Compound 49, 3-(2-acetylphenoxy)-5-chloro-4H--1,2,6-thiadiazin-4-one]",4 (80-100),3 (60-80),2 (40-60),0 (0-10),1 (10-40),1 (10-40),0 (0-10),0 (0-10),4 (80-100),1 (10-40),0 (0-10),0 (0-10)
"O=c1c(Cl)nsnc1Oc1cccc(Cl)c1Cl [Compound 19, 3-chloro-5-(2,3-dichlorophenoxy)-4H--1,2,6-thiadiazin-4-one]",3 (60-80),3 (60-80),0 (0-10),0 (0-10),4 (80-100),1 (10-40),0 (0-10),0 (0-10),0 (0-10),0 (0-10),0 (0-10),0 (0-10)

# From US4450269A, “Mono-5-substituted-3-chloro-4H-1,2,6-thiadiazin-4-one antifungal agents” (FMC Corporation, priority 1980, dated 1984)
